# Experimental data taken from patent publication US20100240040A1, “METHOD FOR SCREENING FOR SELECTIVE MODULATOR OF THE NF-KB PATHWAY ACTIVATION” (INSTITUT PASTEUR, priority 2007, published 2010).
# What was measured:
# CC2-LZ = CC2-LZ (Mus musculus, UniProt O88522); assay: Affinity of CC2-LZ dimerization; type: binding
# Biot-CC2-LZ = target: T1, Biot-CC2-LZ (Mus musculus, UniProt O88522); assay: HTRF assay, complex with Biot-CC2-LZ (negative and positive controls); type: binding; details: each subunit of CC2-LZ at nM concentration, no ubiquitin
# T1 construct: made in house; host or cells: chemical synthesis
# Source text: (§1) The Homogeneous Time Resolved Fluorescence (HTRF®) assay reagents anti-(His)6 monoclonal antibody labeled with XL665 (MABHis6-XL) and streptavidin-Europium cryptate (streptavidin-EuK) were purchased from CIS-Bio. The His-CC2-LZ peptide (SEQ ID NO: 30 and 31) was purified as described in Agou et al., 2004a and the biotin tagged CC2-LZ peptide (SEQ ID NO: 28 and 29) was chemically synthezised as described in Wyler et al., 2007.
# In HTRF experiments, the pure His-CC2-LZ protein was labeled by anti-His-XL665 mAb and biot-CC2-LZ was labeled by streptavidin-EuK. Dimerization of His-CC2-LZ and Biot-CC2-LZ leads the donor (Steptavidin-EuK) and the acceptor (anti-His-XL665) into close proximity. Upon excitation of Europium cryptate at 320 nm, FRET occurs between these two fluorophores, and XL665 re-emits a specific long-lived fluorescence at 665 nm.
# (§2) All experiments were carried out in a black microplate Greiner (200 μl) at 25° C. The excitation wavelength was 320 nm and the fluorescence emissions were measured at 620 nm and at 665 nm to normalize the specific signal. Fluorescence emission was recorded at both wavelengths after an 50 μs delay, which reduces background noise introduced by the media and the free acceptor molecules. The FRET signal is calculated using the following equation:
# ΔF=[(R−Rneg)/Rneg]*100 (1) […]
# [1] = target: T2, CC2-LZ dimer (Biot-CC2-LZ/His-CC2-LZ) (Mus musculus, UniProt O88522); assay: HTRF assay, CC2-LZ dimerization induced by ubiquitin binding; details: added to Biot-CC2-LZ/His-CC2-LZ mixture at nM concentration
# T2 construct: made in house; Biot-CC2-LZ by chemical synthesis
# T2 sequence (O88522 with tags, fused parts or gaps, one chain of several): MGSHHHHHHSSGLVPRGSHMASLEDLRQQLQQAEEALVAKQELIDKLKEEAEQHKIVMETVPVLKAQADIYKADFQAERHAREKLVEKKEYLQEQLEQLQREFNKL
# Source text: as §1
# All measurements of fluorescence resonance energy transfer (FRET) were performed using the microplate reader Mithras LB 940 (Berthold Technologies). HTRF® principle
# In HTRF experiments, the pure His-CC2-LZ protein was labeled by anti-His-XL665 mAb and biot-CC2-LZ was labeled by streptavidin-EuK. […] Upon excitation of Europium cryptate at 320 nm, FRET occurs between these two fluorophores, and XL665 re-emits a specific long-lived fluorescence at 665 nm.
# as §2, with “equation: […]” for “equation:”
# CC2-LZ, sequence (O88522 250-339 limits assumed): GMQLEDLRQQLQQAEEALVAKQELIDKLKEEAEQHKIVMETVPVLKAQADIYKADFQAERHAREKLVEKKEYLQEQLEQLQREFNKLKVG
Kd (CC2-LZ),FRET signal (in words) (Biot-CC2-LZ),FRET signal (in words) [1],Substance
22 µM,no FRET signal was observed,–,LEDLRQQLQQAEEALVAKQELIDKLKEEAEQHKIVMETVPVLKAQADIYKADFQAERHAREKLVEKKEYLQEQLEQLQREFNKL [CC2-LZ]
–,–,no FRET signal was detected,"GST: GST protein alone, control"
